Experimental data as given in US9075060B2, “Methods for diagnosing oral or oral-pharyngeal cancer” (Technion Research & Development Foundation Limited, priority 2009, dated 2015).

What was measured:
TSPO [1] = target: T1, TSPO (Homo sapiens, UniProt P30536); test: [3H]PK 11195 binding to membranes of SCC-25 cells, Scatchard analysis; details: mean±SD, n=7
T1 construct: Assays of [^3H]; host or cells: SCC-25 and SCC-15 human oral cancer cell lines
Protocol: (§1) Assays of [^3H] […] After 80 minute incubation at 4° C., the samples were filtered through Whatman CF/C filters using a vacuum system, washed three times with 4 ml of 5 mM ice cold phosphate buffer and placed in vials containing 4 ml of CytoScint™ (MP Biomedicals, Costa Mesa, Calif.). Radioactivity was counted after 12 hours with a liquid scintillation analyzer. Specific binding was obtained by subtracting non-specific binding from total binding.

TSPO [2] = target: T1, TSPO; test: [3H]PK 11195 binding to membranes of SCC-15 cells, Scatchard analysis; details: mean±SD, n=16
Protocol: as §1

T1 sequence (P30536 whole entry): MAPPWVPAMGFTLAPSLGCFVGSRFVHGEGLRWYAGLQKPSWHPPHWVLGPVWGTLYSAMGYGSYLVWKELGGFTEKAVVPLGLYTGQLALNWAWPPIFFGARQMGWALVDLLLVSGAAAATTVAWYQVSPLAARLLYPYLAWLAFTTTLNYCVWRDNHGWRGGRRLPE

CCC(C)N(C)C(=O)c1cc2ccccc2c(-c2ccccc2Cl)n1 (centres unmarked) [[^3H]PK 11195, PK 11195]
Bmax (maximal binding capacity) (TSPO [1]): 3133±643 fmoles/mg protein
Bmax (maximal binding capacity) (TSPO [2]): 6956±549 fmoles/mg protein
